Assay [1] addresses SiaP (SiaP-His6) (Haemophilus influenzae, UniProt P44542, F193W). Particulars: 50 mM Tris/HCl, pH 8.0.
In assay [2] the target is SiaP (SiaP-His6) (Haemophilus influenzae, UniProt P44542, R170K/F193W). Particulars: 50 mM Tris/HCl, pH 8.0; 0.5 μM protein.
In assay [3] the target is T1, SiaP (SiaP-His6) (Haemophilus influenzae, UniProt P44542).
T1 construct: C-terminal His6 tag; expressed in E. coli BL21(DE3) pLysS (pET21b, pAH16) with native signal peptide, purified from periplasm
Description: intrinsic tyrosine fluorescence titration. The class given is binding. Particulars: 50 mM Tris/HCl, pH 8.0; 0.05 μM protein.

Sequence of SiaP (SiaP-His6) (Haemophilus influenzae, UniProt P44542, F193W) (P44542 24-329 F193W): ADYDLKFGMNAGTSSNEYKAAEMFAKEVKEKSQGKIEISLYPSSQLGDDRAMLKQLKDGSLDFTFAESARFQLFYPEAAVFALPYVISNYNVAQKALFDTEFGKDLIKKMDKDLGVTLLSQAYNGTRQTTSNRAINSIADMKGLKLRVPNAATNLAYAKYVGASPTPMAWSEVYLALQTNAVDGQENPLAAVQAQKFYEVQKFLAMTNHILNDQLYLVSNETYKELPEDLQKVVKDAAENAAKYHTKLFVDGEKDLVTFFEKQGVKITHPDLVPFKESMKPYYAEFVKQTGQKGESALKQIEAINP
T1 sequence (P44542 24-329): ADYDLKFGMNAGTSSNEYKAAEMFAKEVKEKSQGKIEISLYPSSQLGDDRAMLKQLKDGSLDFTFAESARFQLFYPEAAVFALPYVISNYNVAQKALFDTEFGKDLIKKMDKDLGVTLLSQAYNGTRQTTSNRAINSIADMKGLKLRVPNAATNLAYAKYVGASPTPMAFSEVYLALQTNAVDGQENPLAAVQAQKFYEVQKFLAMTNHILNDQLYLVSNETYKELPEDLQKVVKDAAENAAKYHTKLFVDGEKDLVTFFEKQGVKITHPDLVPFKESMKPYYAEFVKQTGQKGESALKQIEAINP
Sequence of SiaP (SiaP-His6) (Haemophilus influenzae, UniProt P44542, R170K/F193W) (P44542 24-329 R170K/F193W): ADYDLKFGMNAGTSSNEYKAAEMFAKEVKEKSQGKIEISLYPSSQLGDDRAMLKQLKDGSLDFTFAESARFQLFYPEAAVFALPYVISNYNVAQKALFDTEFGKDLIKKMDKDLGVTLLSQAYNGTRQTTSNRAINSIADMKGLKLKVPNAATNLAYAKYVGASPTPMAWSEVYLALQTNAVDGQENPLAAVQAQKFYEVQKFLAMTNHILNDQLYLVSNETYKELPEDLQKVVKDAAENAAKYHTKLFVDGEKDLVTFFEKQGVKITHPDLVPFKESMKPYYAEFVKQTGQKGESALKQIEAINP

As a reminder, the Kd is the concentration at which binding is half-saturated. Take `CC(=O)N[C@H]1[C@H]([C@H](O)[C@H](O)CO)OC(O)(C(=O)O)C[C@@H]1O` (stereo partly drawn) [Neu5Ac]: the Kd at SiaP (SiaP-His6) [1] amounted to 1.21 ± 0.03 µM; on SiaP (SiaP-His6) [2], 38700 ± 8300 µM; at SiaP (SiaP-His6) [3] it was 0.14 ± 0.04 µM.

The values above are taken from article PMC4646407, “Tripartite ATP-independent Periplasmic (TRAP) Transporters Use an Arginine-mediated Selectivity Filter for High Affinity Substrate Binding” (The Journal of Biological Chemistry, 2015).
